Measured values from article PMC3818563, “Effect of Iboga Alkaloids on µ-Opioid Receptor-Coupled G Protein Activation” (PLoS ONE, 2013).
Values joined by “and” are separate entries in the source; they are usually repeats but may differ in a detail not shown here. Equal values may be shown once. “Also recorded” adds a separate entry of the source. Where a name gives a salt, the structure may show the parent alone. Read-outs that look alike come from different tables or passages of the source.

Experiments:
μ-opioid receptor (MOR) [1] = details: cited from earlier work
[2] = Solubility of stocks in water; details: thermodynamic from solid
μ-opioid receptor (MOR) [3] = biological target: T1, μ-opioid receptor (MOR) (Rattus norvegicus, UniProt P33535); assay: [35S]GTPγS binding in Sprague-Dawley rat thalamic membranes (Reith lab); format: biochemical; parameters: from tissue; host or cells: rat thalamus membranes (Sprague-Dawley; also Fischer F344 in the Janowsky lab); details: for Ki: Antagonist activity Ke (functional Ki), Sprague-Dawley rat thalamic membranes (Reith lab), versus DAMGO (1 µM) as agonist
T1 sequence (P33535 whole entry): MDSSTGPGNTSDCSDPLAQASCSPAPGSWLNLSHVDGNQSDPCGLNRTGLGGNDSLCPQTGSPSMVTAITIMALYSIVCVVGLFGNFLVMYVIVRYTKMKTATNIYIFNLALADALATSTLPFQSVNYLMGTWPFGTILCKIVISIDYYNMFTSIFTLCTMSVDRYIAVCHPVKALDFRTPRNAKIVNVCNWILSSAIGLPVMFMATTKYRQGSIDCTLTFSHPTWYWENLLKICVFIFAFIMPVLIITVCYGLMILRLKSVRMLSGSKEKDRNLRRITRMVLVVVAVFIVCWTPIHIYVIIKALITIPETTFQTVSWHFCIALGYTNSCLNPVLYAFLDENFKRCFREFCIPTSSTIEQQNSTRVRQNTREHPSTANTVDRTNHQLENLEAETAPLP

μ-opioid receptor (MOR) [4] = biological target: T1, μ-opioid receptor (MOR); assay: [35S]GTPγS binding in Sprague-Dawley / Fischer 344 rat thalamic membranes (Janowsky lab); format: biochemical; parameters: from tissue; host or cells: rat thalamus membranes (Sprague-Dawley; also Fischer F344 in the Janowsky lab)
mouse mMOR = biological target: T2, mouse mMOR (Mus musculus, UniProt P42866); assay: [35S]GTPγS binding in mMOR-expressing HEK 293 cells (Reith lab); format: biochemical
T2 construct: expressed in transfected cells
T2 sequence (P42866 whole entry): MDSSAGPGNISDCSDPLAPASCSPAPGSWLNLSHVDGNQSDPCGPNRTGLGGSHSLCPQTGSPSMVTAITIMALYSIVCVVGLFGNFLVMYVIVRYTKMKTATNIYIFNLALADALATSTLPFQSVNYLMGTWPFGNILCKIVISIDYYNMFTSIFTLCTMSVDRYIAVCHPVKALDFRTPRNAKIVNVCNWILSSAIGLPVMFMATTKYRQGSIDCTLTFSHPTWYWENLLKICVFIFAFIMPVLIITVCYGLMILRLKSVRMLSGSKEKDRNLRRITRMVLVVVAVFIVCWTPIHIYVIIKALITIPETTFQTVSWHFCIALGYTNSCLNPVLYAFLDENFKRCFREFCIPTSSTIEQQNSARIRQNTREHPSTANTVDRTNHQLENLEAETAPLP

NMDA receptor = details: cited from earlier work
μ-opioid receptor (MOR) [5] = biological target: T1, μ-opioid receptor (MOR); assay: [35S]GTPγS binding in Sprague-Dawley rat thalamic membranes (Childers lab); format: biochemical; parameters: from tissue; host or cells: rat thalamus membranes (Sprague-Dawley; also Fischer F344 in the Janowsky lab)
rat rMOR = biological target: T3, rat rMOR (Rattus norvegicus, UniProt P33535); assay: [35S]GTPγS binding in rMOR-expressing CHO cells (Janowsky lab); format: biochemical; details: read-out: Agonist activity Emax (%)
T3 construct: expressed in transfected cells
T3 sequence (P33535 whole entry): as the sequence (P33535 whole entry) above

μ-opioid receptor (MOR) [6] = biological target: T1, μ-opioid receptor (MOR); parameters: method as in PMID 9592058; details: rat thalamic membranes, cited from earlier work
μ-opioid receptor (MOR) [7] = biological target: T1, μ-opioid receptor (MOR); assay: In vitro autoradiography of agonist-stimulated [35S]GTPγS binding in rat brain sections (Childers lab); format: biochemical; parameters: from tissue; details: noribogaine by itself at concentrations up to 30 µM
[8] = estimated; cited from earlier work
human hMOR = biological target: T4, human hMOR (Homo sapiens, UniProt P35372); assay: [35S]GTPγS binding in hMOR-expressing CHO cells (Rothman lab); format: biochemical
T4 construct: expressed in transfected cells
T4 sequence (P35372 whole entry): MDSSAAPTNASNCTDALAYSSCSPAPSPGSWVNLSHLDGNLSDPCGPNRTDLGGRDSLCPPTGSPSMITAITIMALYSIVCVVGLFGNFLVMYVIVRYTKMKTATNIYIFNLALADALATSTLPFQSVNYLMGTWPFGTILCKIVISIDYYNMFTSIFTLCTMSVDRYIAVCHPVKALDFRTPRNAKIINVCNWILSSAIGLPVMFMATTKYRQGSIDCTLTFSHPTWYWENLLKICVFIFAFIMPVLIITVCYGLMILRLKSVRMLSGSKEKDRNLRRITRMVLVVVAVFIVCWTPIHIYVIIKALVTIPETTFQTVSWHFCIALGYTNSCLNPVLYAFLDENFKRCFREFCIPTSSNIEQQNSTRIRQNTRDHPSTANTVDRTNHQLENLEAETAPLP

[9] = biological target: mouse µ-opioid receptor (mMOR) (mouse) (UniProt P42866)
mouse µ-opioid receptor (mMOR) (mouse), sequence (P42866 whole entry): as the sequence (P42866 whole entry) above

[10] = biological target: µ-opioid receptor (MOR) of rat brain (rat (endogenous in rat thalamus and brain sections)) (UniProt P33535)
µ-opioid receptor (MOR) of rat brain (rat (endogenous in rat thalamus and brain sections)), sequence (P33535 whole entry): as the sequence (P33535 whole entry) above

[11] = biological target: rat µ-opioid receptor (rMOR), recombinant (rat) (UniProt P33535)
rat µ-opioid receptor (rMOR), recombinant (rat), sequence (P33535 whole entry): as above

[12] = biological target: µ-opioid receptor (MOR) of rat brain (rat (endogenous in rat thalamus and brain sections)) (UniProt P33535); remark: listed apart in the source
α2 receptor = details: cited from earlier work
[13] = Sprague-Dawley rat thalamic membranes, concentrations up to 100 µM
[14] = concentrations up to 10^-5 M, Janowsky lab procedures or procedures of Pablo and Mash
[15] = read-out: Agonist activity Emax (%)

In the case of `COCC[C@H]1CC2CN3CCc4c([nH]c5ccccc45)[C@](C(=O)OC)(C2)[C@H]13` [18-MC, 18-methoxycoronaridine], the “affinity for the μ-opioid receptor (MOR)” value (μ-opioid receptor (MOR) [1]) is listed as “low micromolar range”, the solubility [2] is listed as no less than 1000 µM and the IC50 (μ-opioid receptor (MOR) [3]) is listed as 83.3 ± 19.4 µM. For the same molecule, the Ki (μ-opioid receptor (MOR) [3]) was 13 µM and 13.2 µM, the “stimulation of [35S]GTPγS binding” value (μ-opioid receptor (MOR) [3]; [13]) was “no significant stimulation; also recorded: no efficacy” and the “stimulation of [35S]GTPγS binding” value (μ-opioid receptor (MOR) [4]; [14]) was “did not stimulate”. For the same molecule, the EC50 (mouse mMOR) was 3.42 ± 2.2 µM, the Ki (mouse mMOR) was 19.1 ± 2.97 µM and the Emax (mouse mMOR; [15]) was 19 ± 4%. The “affinity for the NMDA receptor” value (NMDA receptor) was “lacks significant affinity”.
For `C[C@@H](NC(=O)[C@@H](N)Cc1ccc(O)cc1)C(=O)NCC(=O)N(C)[C@@H](Cc1ccccc1)C(=O)NCCO` [DAMGO, [D-Ala^2, N-MePhe^4, Gly-ol]-enkephalin, reference compound], the Emax (μ-opioid receptor (MOR) [5]; [15]) was 100%, the “maximal level of stimulation of [35S]GTPγS binding over basal” value (μ-opioid receptor (MOR) [3]; Sprague-Dawley rat thalamic membranes) was 214 ± 6% and the Emax (μ-opioid receptor (MOR) [3]; [15]) was 100%. For the same molecule, the Emax (rat rMOR) was 100%, the Emax (μ-opioid receptor (MOR) [4]; [15]) was 100% and the Emax (mouse mMOR; read-out: maximal stimulation of [35S]GTPγS binding over basal) was 257 ± 12%.
In the case of `CC[C@H]1C[C@@H]2C[C@H]3c4[nH]c5ccc(O)cc5c4CCN(C2)[C@@H]13` [Noribogaine, Noribogaine HCl], the “affinity for the μ-opioid receptor (MOR)” value (μ-opioid receptor (MOR) [1]) is listed as “low micromolar range”, the solubility [2] is listed as no less than 1000 µM and the “inhibition of the stimulation evoked by 1 µM DAMGO” value (μ-opioid receptor (MOR) [5]; Sprague-Dawley rat thalamic membranes (Childers lab), noribogaine up to 10 µM) is listed as “did not inhibit”. For the same molecule, the “effect on [35S]GTPγS binding by itself” value (μ-opioid receptor (MOR) [5]; concentrations up to 30 µM) was “did not have any effect”, the “agonist classification by naloxone-sensitive stimulation of [35S]GTPγS binding” value (μ-opioid receptor (MOR) [6]) was “full MOR agonist” and the EC50 (μ-opioid receptor (MOR) [6]; read-out: EC50 for stimulating [35S]GTPγS binding) was 324 nM. The IC50 (μ-opioid receptor (MOR) [3]) was 84 ± 27.8 µM, the Ki (μ-opioid receptor (MOR) [3]) was 13 µM and 13.3 µM and the “stimulation of [35S]GTPγS binding” value (μ-opioid receptor (MOR) [3]; [13]) was “no significant stimulation; also recorded: no efficacy”. For the same molecule, the “stimulation of [35S]GTPγS binding” value (μ-opioid receptor (MOR) [4]; [14]) was “did not stimulate”, the “effect on [35S]GTPγS binding in any brain region” value (μ-opioid receptor (MOR) [7]) was “had no effect” and the “half-life relative to parent compound” value [8] was “considerably longer than that of the parent compound”. For the same molecule, the EC50 (mouse mMOR) was 7.42 ± 1.3 µM, the Ki (mouse mMOR) was 38.3 ± 1.71 µM and the Emax (mouse mMOR; [15]) was 36 ± 6%. The Ki (human hMOR) was 1480 ± 250 nM.
For “DAMGO ([D-Ala^2, N-MePhe^4, Gly-ol]-enkephalin) (peptide)”, the maximal stimulation of [35S]GTPγS binding over basal, HEK 293-mMOR cell membranes (Reith lab) [9] was 257 % over basal, the EC50 of stimulation of [35S]GTPγS binding, Sprague-Dawley and Fischer 344 rat thalamic membranes (Janowsky lab) [10] was 0.122 µM and the EC50 of stimulation of [35S]GTPγS binding, Sprague-Dawley rat thalamic membranes (Childers lab) [10] was 0.21 µM. It also gave an EC50 of stimulation of [35S]GTPγS binding, Sprague-Dawley rat thalamic membranes (Reith lab) [10] of 0.238 µM, an EC50 of stimulation of [35S]GTPγS binding, CHO rMOR cell membranes (Janowsky lab) [11] of 0.034 µM and a maximal stimulation of [35S]GTPγS binding over basal, Sprague-Dawley rat thalamic membranes (Reith lab) [12] of 214 % over basal.
For Ibogaine HCl, the “affinity for the μ-opioid receptor (MOR)” value (μ-opioid receptor (MOR) [1]) is listed as “low micromolar range”, the “stimulation of [35S]GTPγS binding” value (μ-opioid receptor (MOR) [6]; 100 µM ibogaine) is listed as roughly 20% and the “stimulation of [35S]GTPγS binding” value (μ-opioid receptor (MOR) [6]; concentrations of 100 µM to 1 mM) is listed as 20-30%. For the same molecule, the “stimulation of [35S]GTPγS binding” value (μ-opioid receptor (MOR) [3]) was “no significant stimulation”, the “stimulation of [35S]GTPγS binding” value (μ-opioid receptor (MOR) [4]) was “did not stimulate” and the “affinity for the α2 receptor” value (α2 receptor) was “no significant affinity”.
